These results are taken from patent publication US9253979B2, “Methods of controlling insects” (priority 2010, dated 2016).

What all share (format): in vivo, Drosophila melanogaster
For assay [1], the system named is Line 14 (susceptible wildtype control) Drosophila strain. Briefly: Dosage mortality testing, first instar larvae, Line 14 strain. Particulars: applied to insect diet, Probit analysis. As to the method:
(§1) Dosage mortality testing was conducted on four strains of Drosophila melanogaster. Each of the Drosophila strains tested had at least one lesion in one of the nAChR subunits or was a control strain lacking a lesion. […] The 4A4D Drosophila strain was a double mutant having lesions in both the Dα1 subunit and the Dβ2 subunit. The susceptible Drosophila strain or control Drosophila strain was the wildtype Drosophila strain in which the EMS lesions were generated, and is referred to in Tables 1-4 as the “Line 14” strain.
Screening was performed on first instar larvae with five replicates of fifty larvae per vial at each concentration to determine the susceptibility of each Drosophila strain to the spinosyn composition and to an imidacloprid composition. The spinosyn composition (spinosad) included 85% spinosyn A and 15% spinosyn D in a sugar solution. Stock solutions were typically made 0.1% w/v in acetone and then diluted to lower concentrations. The spinosyn or imidacloprid compositions were then applied to the insect diet, allowed to dry and then infested with the insect larvae. […]

In assay [2] the test system is Dβ2EMS2 Drosophila strain (lesion in the Dβ2 subunit). Briefly: Dosage mortality testing, first instar larvae, Dβ2EMS2 strain. The settings on record: for Fold resistance: Dβ2EMS2 strain relative to Line 14. As to the method:
as §1
(§2) Screening was performed on first instar larvae with five replicates of fifty larvae per vial at each concentration to determine the susceptibility of each Drosophila strain to the spinosyn composition and to an imidacloprid composition. The spinosyn composition (spinosad) included 85% spinosyn A and 15% spinosyn D in a sugar solution. Stock solutions were typically made 0.1% w/v in acetone and then diluted to lower concentrations. The spinosyn or imidacloprid compositions were then applied to the insect diet, allowed to dry and then infested with the insect larvae.
(§3) The concentrations of the spinosyn composition and the imidacloprid composition were selected across a range to provide data enabling the effective dose (ED) that produces a response in 50% of the first instar larvae (ED50) and the effective dose that produces a response in 90% of the first instar larvae (ED90) to be calculated. After administering the spinosyn composition or the imidacloprid composition, the first instar larvae were visually monitored for mortality. Data were analyzed using Probit analysis to determine the ED50 and the ED90, along with upper and lower 95% limits.

In assay [3] the test system is Dα1EMS1 Drosophila strain (lesion in the Dα1 nAChR subunit). Briefly: Dosage mortality testing, first instar larvae, Dα1EMS1 strain. The settings on record: for Fold resistance: Dα1EMS1 strain relative to Line 14. Here is the method: as §1, §2, §3
For assay [4], the system named is 4A4D Drosophila strain (double mutant, lesions in both the Dα1 subunit and the Dβ2 subunit). Particulars: for Fold resistance: 4A4D strain relative to Line 14. Here is the method:
as §1, §2, §3

Where [5] appears, read: Dβ2EMS2 strain, first instar larvae, mortality, applied to insect diet, Probit analysis.
Setting [6] is: Dα1EMS1 strain, first instar larvae, mortality, applied to insect diet, Probit analysis.
Setting [7] is: 4A4D strain, first instar larvae, mortality, applied to insect diet, Probit analysis.

Read-outs that look alike come from different tables or passages of the source.

With `O=[N+]([O-])NC1=NCCN1Cc1ccc(Cl)nc1` [imidacloprid composition, imidacloprid], the ED50 in assay [1] was found to be 0.14 ppm; in assay [2] (setting [5]) it was 4.04 ppm; in assay [3] (setting [6]), 2.91 ppm; in assay [4] (setting [7]), 3.78 ppm. Also, the ED90 in assay [1] is 0.28 ppm; in assay [2] (setting [5]), 8.02 ppm; in assay [3] (setting [6]), 5.77 ppm; in assay [4] (setting [7]), 7.49 ppm. For the same compound, the Fold resistance in assay [2] (ED50 table) stood at 28.69; in assay [2] (ED90 table) it was 28.70; in assay [3] (ED50 table), 20.63; in assay [3] (ED90 table), 20.63; in assay [4] (ED50 table) it was 26.81; in assay [4] (ED90 table), 26.81.
